Source: patent US12492173B2, “Herbicidal substituted N-tetrazolyl aryl carboxamides” (Bayer Aktiengesellschaft, priority 2019, dated 2025)

Tests used:
Type in all cases: in vivo
Viola tricolor = test: Post-emergence herbicidal action, VIOTR; parameters: key: % herbicidal action vs untreated; 100 = plants died, 0 = like control; details: Dosage 80 g/ha
Procedure, shortened: (§1)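 WP or EC formulations, diluted in water at 600 to 800 l/ha with 0.2% wetting agent, are sprayed onto green parts of one-leaf-stage plants grown in sandy loam. Visual assessment of percent damage relative to untreated controls follows after approximately 3 weeks in the greenhouse.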

Setaria viridis = test: Pre-emergence herbicidal action, SETVI; details: dosage 320 g/ha, scored visually after 3 weeks vs untreated controls (100% = plants have died)
Procedure, shortened: (§2)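 Weed seeds sown in sandy loam and covered; WP or EC formulations applied to soil surface as aqueous suspension or emulsion at 600 to 800 l/ha with 0.2% wetting agent. Greenhouse-grown, with damage scored visually after 3 weeks versus untreated controls (0% = like control, 100% = plants dead).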

Alopecurus myosuroides = test: Post-emergence herbicidal action, ALOMY; parameters: key: % herbicidal action vs untreated; 100 = plants died, 0 = like control; details: Dosage 80 g/ha
Procedure, shortened: as §1

Echinochloa crus-galli = test: Pre-emergence herbicidal action, ECHCG; details: dosage 320 g/ha, scored visually after 3 weeks vs untreated controls (100% = plants have died)
Procedure, shortened: as §2

Polygonum convolvulus = test: Post-emergence herbicidal action, POLCO; details: Dosage 80 g/ha
Procedure, shortened: as §1

Stellaria media = test: Post-emergence herbicidal action, STEME; parameters: key: % herbicidal action vs untreated; 100 = plants died, 0 = like control; details: Dosage 80 g/ha
Procedure, shortened: as §1

CCCn1nnnc1NC(=O)c1ccc(C(F)(F)F)c(CSCC)c1Br [Example 3-383]
herbicidal action VIOTR (Viola tricolor): 100
herbicidal activity SETVI (Setaria viridis): 100%
herbicidal action ALOMY (Alopecurus myosuroides): 80
herbicidal activity ECHCG (Echinochloa crus-galli): 100%
herbicidal action POLCO (Polygonum convolvulus): 90
herbicidal action STEME (Stellaria media): 100
